Measurements published in ChEMBL document CHEMBL1131892, “Synthesis and biological activities of NB-506 analogues: Effects of the positions of two hydroxyl groups at the indole rings” (Bioorg Med Chem Lett, 1999).

Key:
P388 [1] = assay: Inhibition of protein-DNA complex in P388 (murine leukemia) cells.; assay type: functional, Mus musculus
[2] = Compound was tested for anticancer effect on cancer cells implanted subcutaneously into flanks of nude mice and safety margin was determined (LD10/GID75); assay type: functional, Cancer cell lines
DLD-1 = assay: In vitro cytotoxicity against DLD-1 (human colon cancer) cells.; assay type: functional, cell-based
DNA topoisomerase 1 = biological target: T1, DNA topoisomerase 1 (Homo sapiens, UniProt P11387); assay: In vitro inhibition of Topoisomerase I-mediated DNA cleavage using supercoiled pBR322 plasmid DNA.
T1 sequence (P11387 whole entry): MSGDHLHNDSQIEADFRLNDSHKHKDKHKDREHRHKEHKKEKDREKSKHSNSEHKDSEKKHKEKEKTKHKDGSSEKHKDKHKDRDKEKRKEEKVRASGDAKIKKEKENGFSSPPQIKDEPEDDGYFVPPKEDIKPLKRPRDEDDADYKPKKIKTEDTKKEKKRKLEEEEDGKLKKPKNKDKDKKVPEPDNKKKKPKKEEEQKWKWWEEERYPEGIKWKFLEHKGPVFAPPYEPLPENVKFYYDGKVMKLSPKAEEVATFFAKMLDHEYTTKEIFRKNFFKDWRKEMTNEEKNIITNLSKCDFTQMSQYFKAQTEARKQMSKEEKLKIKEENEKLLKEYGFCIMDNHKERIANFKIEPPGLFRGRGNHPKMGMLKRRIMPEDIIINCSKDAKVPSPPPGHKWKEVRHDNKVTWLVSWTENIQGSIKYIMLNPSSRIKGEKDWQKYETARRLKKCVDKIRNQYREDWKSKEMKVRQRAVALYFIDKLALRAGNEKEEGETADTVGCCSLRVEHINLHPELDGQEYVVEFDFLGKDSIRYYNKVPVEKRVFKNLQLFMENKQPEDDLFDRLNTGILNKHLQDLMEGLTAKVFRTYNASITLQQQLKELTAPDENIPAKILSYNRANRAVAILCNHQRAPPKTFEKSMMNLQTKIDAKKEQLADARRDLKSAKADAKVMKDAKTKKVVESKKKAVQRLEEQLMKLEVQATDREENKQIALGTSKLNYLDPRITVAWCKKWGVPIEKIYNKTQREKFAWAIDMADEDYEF

MKN-45 = assay: In vitro cytotoxicity against MKN-45 (human stomach cancer) cells.; assay type: functional, cell-based
P388 [3] = assay: In vitro cytotoxicity against p388 (murine leukemia) cells.; assay type: functional, cell-based; conditions: Mus musculus
Mus musculus = assay: Tested for anticancer effect on MKN-45 human stomach cancer cells implanted subcutaneously into flanks of nude mice.; assay type: functional

| SMILES | EC200 (P388 [1]) | Ratio [2] | IC50 (DLD-1) | EC50 (DNA topoisomerase 1) | IC50 (MKN-45) | IC50 (P388 [3]) | GID75 (Mus musculus) | LD10 (Mus musculus) |
| --- | --- | --- | --- | --- | --- | --- | --- | --- |
| O=C1c2c(c3c4ccc(O)cc4n(C4OC(CO)C(O)C(O)C4O)c3c3[nH]c4cc(O)ccc4c23)C(=O)N1NC(CO)CO (stereo not given) | 0.1 µM | >36 | 0.12 µM | 0.051 µM | 0.0048 µM | 0.0015 µM | 45 mg m**-2 | >1600 mg m**-2 |
| O=C1c2c(c3c4cccc(O)c4n(C4OC(CO)C(O)C(O)C4O)c3c3[nH]c4cc(O)ccc4c23)C(=O)N1NC(CO)CO (stereo not given) | 0.4 µM | 1.7 | 0.089 µM | 0.16 µM | 0.087 µM | 0.0054 µM | 220 mg m**-2 | 370 mg m**-2 |
| O=C1c2c(c3c4ccccc4n(C4OC(CO)C(O)C(O)C4O)c3c3[nH]c4cc(O)ccc4c23)C(=O)N1NC(CO)CO (stereo not given) | 1.2 µM | 3.3 | 2 µM | 0.65 µM | 0.11 µM | 0.013 µM | 820 mg m**-2 | 2700 mg m**-2 |
| O=C1c2c(c3c4ccccc4n(C4OC(CO)C(O)C(O)C4O)c3c3[nH]c4cccc(O)c4c23)C(=O)N1NC(CO)CO (stereo not given) | >10 µM |  | > 30 µM | 0.57 µM | 2.1 µM | 0.7 µM |  |  |
| O=C1c2c(c3c4ccccc4n(C4OC(CO)C(O)C(O)C4O)c3c3[nH]c4ccc(O)cc4c23)C(=O)N1NC(CO)CO (stereo not given) | 2 µM |  | 5.5 µM | 1.1 µM | 0.72 µM | 0.13 µM |  |  |
| O=C1c2c(c3c4ccc(O)cc4n(C4OC(CO)C(O)C(O)C4O)c3c3[nH]c4ccccc4c23)C(=O)N1NC(CO)CO (stereo not given) | 0.4 µM | 1.3 | 1 µM | 0.23 µM | 0.025 µM | 0.0031 µM | 800 mg m**-2 | 1000 mg m**-2 |
| O=C1c2c(c3c4cc(O)ccc4n(C4OC(CO)C(O)C(O)C4O)c3c3[nH]c4ccc(O)cc4c23)C(=O)N1NC(CO)CO (stereo not given) | 0.6 µM | 1.3 | 11 µM | 0.21 µM | 0.25 µM | 0.0068 µM | 300 mg m**-2 | 380 mg m**-2 |
| O=C1c2c(c3c4cc(O)ccc4n(C4OC(CO)C(O)C(O)C4O)c3c3[nH]c4cc(O)ccc4c23)C(=O)N1NC(CO)CO (stereo not given) | 0.65 µM | 1.4 | 0.34 µM | 0.055 µM | 0.12 µM | 0.0035 µM | 710 mg m**-2 | 1000 mg m**-2 |
| O=C1c2c(c3c4cccc(O)c4n(C4OC(CO)C(O)C(O)C4O)c3c3[nH]c4c(O)cccc4c23)C(=O)N1NC(CO)CO (stereo not given) | 0.45 µM | 5 | 0.52 µM |  |  |  | 78 mg m**-2 | 390 mg m**-2 |
| O=C1c2c(c3c4cc(O)ccc4n(C4OC(CO)C(O)C(O)C4O)c3c3[nH]c4c(O)cccc4c23)C(=O)N1NC(CO)CO (stereo not given) | 3 µM | 0.8 | 5.1 µM | 0.13 µM | 0.3 µM | 0.031 µM | 2200 mg m**-2 | 1800 mg m**-2 |
| O=C1c2c(c3c4ccccc4n(C4OC(CO)C(O)C(O)C4O)c3c3[nH]c4c(O)cccc4c23)C(=O)N1NC(CO)CO (stereo not given) | >10 µM |  | 10 µM | 0.21 µM | 1.6 µM | 0.14 µM |  |  |
| O=C1c2c(c3c4ccc(O)cc4n(C4OC(CO)C(O)C(O)C4O)c3c3[nH]c4ccc(O)cc4c23)C(=O)N1NC(CO)CO (stereo not given) | 0.35 µM | 3.4 | 0.079 µM | 0.037 µM | 0.056 µM | 0.0052 µM | 290 mg m**-2 | 1000 mg m**-2 |
| O=C1c2c(c3c4ccc(O)cc4n(C4OC(CO)C(O)C(O)C4O)c3c3[nH]c4c(O)cc(O)cc4c23)C(=O)N1NC(CO)CO (stereo not given) | >10 µM |  | > 30 µM | 0.09 µM | > 30 µM | 15 µM |  |  |
| O=C1c2c(c3c4cc(O)cc(O)c4n(C4OC(CO)C(O)C(O)C4O)c3c3[nH]c4c(O)cc(O)cc4c23)C(=O)N1NC(CO)CO (stereo not given) | 5.5 µM |  | > 30 µM | 0.35 µM | > 30 µM | > 30 µM |  |  |
| O=C1c2c(c3c4cccc(O)c4n(C4OC(CO)C(O)C(O)C4O)c3c3[nH]c4ccc(O)cc4c23)C(=O)N1NC(CO)CO (stereo not given) | 0.55 µM | 0.8 | 0.22 µM | 0.51 µM | 0.25 µM | 0.032 µM | 2500 mg m**-2 | 1900 mg m**-2 |
| O=C1c2c(c3c4cc(O)ccc4n(C4OC(CO)C(O)C(O)C4O)c3c3[nH]c4ccccc4c23)C(=O)N1NC(CO)CO (stereo not given) | 4.5 µM |  | > 30 µM | 1.9 µM | 4.2 µM | 0.047 µM |  |  |
| O=C1c2c(c3c4ccc(O)cc4n(C4OC(CO)C(O)C(O)C4O)c3c3[nH]c4c(O)cccc4c23)C(=O)N1NC(CO)CO (stereo not given) | 0.8 µM | 1.1 | 0.2 µM | 0.055 µM | 0.065 µM | 0.01 µM | 320 mg m**-2 | 350 mg m**-2 |
| O=C1c2c(c3c4cccc(O)c4n(C4OC(CO)C(O)C(O)C4O)c3c3[nH]c4ccccc4c23)C(=O)N1NC(CO)CO (stereo not given) | 2 µM |  | 2.6 µM | 0.65 µM | 0.64 µM | 0.022 µM |  |  |
| O=C1c2c(c3c4c(O)cccc4n(C4OC(CO)C(O)C(O)C4O)c3c3[nH]c4ccccc4c23)C(=O)N1NC(CO)CO (stereo not given) | >10 µM |  | > 30 µM | 0.49 µM | 7.1 µM | 0.91 µM |  |  |
